Patent US11712481B2, “Lipid nanoparticle formulations” (Acuitas Therapeutics, Inc., priority 2016, dated 2023)

How the values were obtained:
[1] = Particle size and polydispersity index by light scattering (Malvern Zetasizer/Nanosizer ZS); type: physicochemical; settings: LNP 47.5:10:40.7:1.8
Experimental: Cationic lipid(s), DSPC, cholesterol and PEG-lipid were solubilized in ethanol at a desired molar ratio (e.g., 50:0 to 10:28.5 to 38.5:1.5 to 1.7 or 47.5:10:40.8:1.7). Lipid nanoparticles (LNP) were prepared at a total lipid to mRNA weight ratio of approximately 10:1 to 30:1. The mRNA was diluted to 0.2 mg/mL in 10 to 50 mM citrate buffer, pH 4. Syringe pumps were used to mix the lipid solution (i.e., LNP components solubilized in ethanol) with the mRNA aqueous solution at a ratio of about 1:5 to 1:3 (vol/vol) with total flow rates above 15 mL/min. The ethanol was then removed and the external buffer replaced with PBS by dialysis. Finally, the lipid nanoparticles were filtered through a 0.2 μm pore sterile filter. Lipid nanoparticle particle size was 55-95 nm diameter, and in some instances approximately 70-90 nm as determined by quasi-elastic light scattering using a Malvern Zetasizer Nano ZS (Malvern, UK).
(§1) LNP's were formulated by an in-line mixing process as described in Example 1. These formulations were prepared such that the mRNA to cationic lipid ratio was held constant (N/P=6.3). The size and polydispersity index data were generated using Malvern Nanosizer ZS. The diameters given are intensity weighted means. Encapsulation was determined using a fluorescent intercalating dye based assay (Ribogreen). […]
(§2) The effect of the proportion of mRNA to total lipid was investigated for a particular standard set of lipid proportions across three representative cationic lipids. LNP's were formulated by an in-line mixing process as described in Example 1. The lipid proportions were held constant at 47.5:10:40.7:1.8 for the cationic lipid, DSPC, Cholesterol and PEG-lipid respectively. The mRNA to lipid ratios are described in terms of the N/P ratio where N represents the moles of cationic lipid and P represents the moles of phosphate present as part of the nucleic acid backbone. Ratios described in this way are independent of the size of the nucleic acid. The size and polydispersity index data were generated using Malvern Nanosizer ZS. The diameters given are intensity weighted means. Encapsulation was determined using a fluorescent intercalating dye based assay (Ribogreen).

[2] = Encapsulation by fluorescent intercalating dye based assay (Ribogreen); type: physicochemical
Experimental: as §1, §2

[3] = system: Photinus pyralis (firefly) luciferase mRNA expression in liver; test: Luciferase mRNA in vivo evaluation using LNP compositions, liver; settings: LNP 47.5:10:40.7:1.8, 1 mg/kg, mice
Experimental: (§3) Luciferase mRNA in vivo evaluation studies were performed in 6-8 week old female C57BL/6 mice (Charles River) 8-10 week old CD-1 (Harlan) mice (Charles River) according to guidelines established by an institutional animal care committee (ACC) and the Canadian Council on Animal Care (CCAC). Varying doses of mRNA-lipid nanoparticle were systemically administered by tail vein injection and animals euthanized at a specific time point (e.g., 4 hours) post-administration. Liver and spleen were collected in pre-weighed tubes, weights determined, immediately snap frozen in liquid nitrogen and stored at −80° C. until processing for analysis.
For liver, approximately 50 mg was dissected for analyses in a 2 mL FastPrep tubes (MP Biomedicals, Solon Ohio). ¼″ ceramic sphere (MP Biomedicals) was added to each tube and 500 μL of Glo Lysis Buffer—GLB (Promega, Madison Wis.) equilibrated to room temperature was added to liver tissue. Liver tissues were homogenized with the FastPrep24 instrument (MP Biomedicals) at 2×6.0 m/s for 15 seconds. Homogenate was incubated at room temperature for 5 minutes prior to a 1:4 dilution in GLB and assessed using SteadyGlo Luciferase assay system (Promega). Specifically, 50 μL of diluted tissue homogenate was reacted with 50 μL of SteadyGlo substrate, shaken for 10 seconds followed by 5 minute incubation and then quantitated using a CentroXS^3 LB 960 luminometer (Berthold Technologies, Germany). The amount of protein assayed was determined by using the BCA protein assay kit (Pierce, Rockford Ill.). Relative luminescence units (RLU) were then normalized to total μg protein assayed. To convert RLU to ng luciferase a standard curve was generated with QuantiLum Recombinant Luciferase (Promega). For a representative formulation having a combination of two cationic lipids, a four-hour time point was chosen for an efficacy evaluation of the lipid formulation.
(§4) The FLuc mRNA (L-6107) from Trilink Biotechnologies will express a luciferase protein, originally isolated from the firefly, Photinus pyralis. FLuc is commonly used in mammalian cell culture to measure both gene expression and cell viability. It emits bioluminescence in the presence of the substrate, luciferin. This capped and polyadenylated mRNA is fully substituted with 5-methylcytidine and pseudouridine.
LNP's were formulated by an in-line mixing process as described in Example 1. […] The size and polydispersity index data were generated using Malvern Nanosizer ZS. The diameters given are intensity weighted means. Encapsulation was determined using a fluorescent intercalating dye based assay (Ribogreen).

[4] = system: Photinus pyralis (firefly) luciferase mRNA expression in spleen; test: Luciferase mRNA in vivo evaluation using LNP compositions, spleen; settings: LNP 47.5:10:40.7:1.8, 1 mg/kg, mice
Experimental: as §3, §4, §2

[5] = Determination of pKa of formulated lipids (TNS fluorescence assay); type: physicochemical; settings: lipids of Formula I, formulated in LNP cationic lipid/DSPC/cholesterol/PEG-lipid 50/10/38.5/1.5 mol % or cationic lipid alone
Experimental: As described elsewhere, the pKa of formulated cationic lipids is correlated with the effectiveness of LNPs for delivery of nucleic acids (see Jayaraman et al, Angewandte Chemie, International Edition (2012), 51(34), 8529-8533; Semple et al, Nature Biotechnology 28, 172-176 (2010)). A representative preferred range of pKa is ˜5 to ˜7. […] Lipid nanoparticles comprising of cationic lipid/DSPC/cholesterol/PEG-lipid (50/10/38.5/1.5 mol %) or a cationic lipid alone in PBS at a concentration of 0.4 mM total lipid are prepared using the in-line process as described in Example 1. TNS was prepared as a 100 μM stock solution in distilled water. Vesicles were diluted to 24 μM lipid in 2 mL of buffered solutions containing 10 mM HEPES, 10 mM MES, 10 mM ammonium acetate, 130 mM NaCl, where the pH ranged from 2.5 to 11. An aliquot of the TNS solution was added to give a final concentration of 1 μM and following vortex mixing fluorescence intensity was measured at room temperature in a SLM Aminco Series 2 Luminescence Spectrophotometer using excitation and emission wavelengths of 321 nm and 445 nm. A sigmoidal best fit analysis was applied to the fluorescence data and the pKa was measured as the pH giving rise to half-maximal fluorescence intensity.

[6] = N/P 3:1, LNP cationic lipid/DSPC/Cholesterol/PEG-lipid 47.5:10:40.7:1.8

| PDI ([1]; N/P 3:1) | Size ([1]; N/P 3:1) [nm] | PDI ([1]; N/P 6:1) | Size ([1]; N/P 6:1) [nm] | PDI ([1]; N/P 12:1) | Size ([1]; N/P 12:1) [nm] | PDI ([1]; N/P 22:1) | Size ([1]; N/P 22:1) [nm] | Encapsulation [2, 6] [%] | Encapsulation ([2]; N/P 6:1, LNP 47.5:10:40.7:1.8) [%] | Encapsulation ([2]; N/P 12:1, LNP 47.5:10:40.7:1.8) [%] | Encapsulation ([2]; N/P 22:1, LNP 47.5:10:40.7:1.8) [%] | Compound | Liver Luc Activity ([3]; N/P 3:1) [ng/g] | Liver Luc Activity ([3]; N/P 6:1) [ng/g] | Liver Luc Activity ([3]; N/P 12:1) [ng/g] | Liver Luc Activity ([3]; N/P 22:1) [ng/g] | Spleen Luc Activity ([4]; N/P 3:1) [ng/g] | Spleen Luc Activity ([4]; N/P 6:1) [ng/g] | Spleen Luc Activity ([4]; N/P 12:1) [ng/g] | Spleen Luc Activity ([4]; N/P 22:1) [ng/g] | other results |
| --- | --- | --- | --- | --- | --- | --- | --- | --- | --- | --- | --- | --- | --- | --- | --- | --- | --- | --- | --- | --- | --- |
| 0.072 | 86 | 0.028 | 81 | 0.026 | 75 | 0.039 | 81 | 94 | 96 | 98 | 99 | CCCCCCCCC(CCCCCC)C(=O)OCCCCCCN(CCCCCCOC(=O)C(CCCCCC)CCCCCCCC)CCN(C)C (stereo not shown) [Compound I-5] | 7689 | 9509 | 12826 | 14538 | 188 | 236 | 184 | 247 | – |
| – | – | – | – | – | – | – | – | – | – | – | – | CCCCCCCCCCCCC(CCCCCCCCCC)C(=O)OCCCCCCN(CCCCCCOC(=O)C(CCCCCCCCCC)CCCCCCCCCC)CCN(C)C (stereo not shown) [Compound I-39] | – | – | – | – | – | – | – | – | pKa [5]: 5.82 |
| 0.054 | 94 | 0.033 | 88 | 0.014 | 84 | 0.017 | 84 | 92 | 95 | 98 | 98 | CCCCCCCCC(=O)N(CCCN(C)C)C(CCCCCCCCC(=O)OCC(CCCC)CCCCCC)CCCCCCCCC(=O)OCC(CCCC)CCCCCC (stereo not shown) [II-9] | 6727 | 12209 | 18330 | 12634 | 831 | 642 | 514 | 439 | – |
| 0.089 | 87 | 0.068 | 74 | 0.074 | 65 | 0.083 | 57 | 75 | 86 | 91 | 94 | CCCCCCC(CCCC)C(=O)OCCCCCCCCCN(CCCO)CCCCCCCCCOC(=O)C(CCCC)CCCCCC (stereo not shown) [III-45] | 13308 | 15395 | 16596 | 16005 | 410 | 356 | 243 | 353 | – |
